{
  "source": "patent US6784165B1",
  "about": "“Treatment of heart rhythm disturbances with N6-substituted-5′-(N-substituted) carboxamidoadenosines” (Aderis Pharmaceuticals, Inc., priority 1999, dated 2004)",
  "key": {"[1]": {"test_system": "guinea pig isolated heart", "assay": "Guinea pig isolated electrically paced heart: effect of heart rate on AV interval and heart block", "protocol": "(§1) Guinea pig isolated hearts were prepared according to the method of Langendorff in which the coronary vasculature was perfused in a retrograde fashion at constant pressure via the aorta. Compound A was administered to the spontaneously beating hearts by infusion into the perfusion line supplying buffer to the coronary vasculature. The concentration of Compound A was adjusted by changes in the infusion rate and/or changes in the concentration of infusion solutions. The concentration of Compound A present in the perfusate was calculated by dividing the rate of Compound A infused by the coronary flow rate. Spontaneously beating heart rate and AV interval were recorded.\nGuinea pig isolated hearts were prepared according to the methods described in Example 5. In the first portion of the experiment designed to determine the effect of heart rate on the negative dromotropic activity of Compound A, hearts were allowed to beat spontaneously or electrically paced either at 200 beats per minute (approximately 20% above the spontaneous rate) or at 300-360 beats per minute (approximately 80% above the spontaneous rate). Atrioventricular (AV) conduction interval (AV interval) was determined as the time from the atrial stimulus to the beginning of ventricular depolarization. The AV interval measurements were performed at each pacing rate with increased concentrations of Compound A as described in Example 5. Upon electrical pacing at 200 beats per minute, Compound A at a mean concentration of 3.9 nM produced a mean maximal 58% increase in AV interval, and heart block at a mean minimal concentration of 5.1 nM. […] The results are summarized in the table below, with data from spontaneously beating hearts included for comparative purposes: […]"}, "[2]": {"test_system": "guinea pig isolated heart", "assay": "Guinea pig isolated heart paced at 300-360 bpm: AV conduction interval versus coronary perfusate flow", "protocol": "(§2) Guinea pig isolated hearts were prepared according to the methods described in Example 5. In the first portion of the experiment designed to determine the effect of heart rate on the negative dromotropic activity of Compound A, hearts were allowed to beat spontaneously or electrically paced either at 200 beats per minute (approximately 20% above the spontaneous rate) or at 300-360 beats per minute (approximately 80% above the spontaneous rate). Atrioventricular (AV) conduction interval (AV interval) was determined as the time from the atrial stimulus to the beginning of ventricular depolarization. The AV interval measurements were performed at each pacing rate with increased concentrations of Compound A as described in Example 5. Upon electrical pacing at 200 beats per minute, Compound A at a mean concentration of 3.9 nM produced a mean maximal 58% increase in AV interval, and heart block at a mean minimal concentration of 5.1 nM. […] The results are summarized in the table below, with data from spontaneously beating hearts included for comparative purposes:\nIn order to determine the differential potencies of Compound A for negative […] activity versus coronary vasodilation in paced hearts, a different set of experiments was conducted in which individual hearts were used to collect measurements for each action. Experimental conditions as described in Example 6 were used, with guinea pig isolated hearts being paced at 300-360 beats per minute. AV conduction interval was determined as described in Example 6. Coronary perfusate flow data was determined by measuring the volume of fluid leaving the heart. AV conduction interval data and coronary perfusate flow data were collected in the presence of increasing concentrations of Compound A. The results are shown in FIG. 3, with dose-related increases for both AV conduction interval and coronary perfusate flow. The differential for these effects is readily apparent. The mean concentration of Compound A that produced a maximal increase in AV conduction time was 0.76 nM."}, "[3]": {"assay": "Oral bioavailability estimated from bradycardia AUC oral vs intravenous in conscious rats", "type": "in vivo, rat", "details": "male, Sprague-Dawley, rat, in vivo", "description": "Concentration dose-effect curve data were fitted to a sigmoid curve using Graphpad PRIZM™ software to obtain the concentration or dose of test compound that produces 50% of the maximal obtainable response, in vitro EC50 or in vivo ED50 values, for activation of the adenosine A1 receptor. Responses measured to each dose were the plateau negative inotropic response to cumulative additions of test compound in the isolated left atria and the peak bradycardia in response to bolus intravenous injections of test compound in conscious rats. Oral bioavailability was estimated from pharmacodynamic responses using the expression: (Response AUCoral/Response AUCiv)(Doseiv/Doseoral), where Response AUC is the area under the curve for test compound-induced bradycardia over time.\n(§3) Male Sprague-Dawley rats were anesthetized with sodium pentobarbital 50 mg/kg i.p., and indwelling catheters were surgically implanted in the carotid artery and jugular vein two days prior to each experiment. During all subsequent experiments, rats were conscious and unrestrained. The carotid artery cannula was attached to a pressure transducer and blood pressure was recorded continuously throughout each experiment using a Grass polygraph. Heart rate was derived from the blood pressure signal using a Grass tachygraph. The measured parameters were allowed from 30 to 90 minutes to stabilize before the administration of test compound.\nTest compounds were administered either by oral gavage using a curved, bulbed oral dosing cannula, or by intravenous administration via the jugular vein indwelling catheter. Rats dosed orally were fasted overnight before dosing, with water available ad libitum. Because the heart rate responses following intravenous administration of test compound rapidly returned to baseline, more than one dose of test compound could be administered to each rat. However, the responses to oral administration of test compounds were of a prolonged duration and therefore only a single dose could be administered to each rat.\nA comparison of the area under the bradycardia vs. time curve (AUC) following intravenous administration with the AUC following oral administration was used as a measure of oral bioavailability."}, "[4]": {"test_system": "guinea pig isolated heart", "assay": "Guinea pig isolated heart model of paroxsymal supraventricular tachycardia (200/300/200 bpm pacing)", "protocol": "as §2\nUsing the experimental conditions described in Example 6, individual hearts were paced at 200 bpm for one minute followed abruptly by one minute of pacing at 300 bpm, after which the pacing rate was returned to 200 bpm. The 300 bpm pacing cycle was intended to simulate an episode of supraventricular tachycardia. This pacing sequence was conducted in the presence of vehicle and in the presence of increasing concentrations of Compound A. The results are expressed in FIG. 2. Compound A, at a mean concentration of 2 nM that had little effect on AV interval at 200 bpm induced AV block within 30 seconds during the 300 bpm episode."}, "[5]": {"test_system": "conscious rats", "assay": "Heart rate and blood pressure in conscious unrestrained rats (intravenous or oral)", "type": "in vivo, rat", "protocol": "as §3\nCompound A was administered by intravenous administration via the jugular vein indwelling catheter or by oral gavage using a curved, bulbed oral dosing cannula. Food and water were available ad libitum."}, "[6]": {"test_system": "guinea pig isolated spontaneously beating heart", "assay": "Guinea pig isolated spontaneously beating heart (Langendorff): heart rate and AV interval", "protocol": "as §1"}, "[7]": {"details": "paced at 300-360 beats per minute"}, "[8]": {"details": "0.1 μg/kg/min intravenously for 120 minutes"}, "[9]": {"details": "heart rate spontaneous (appro. 170 bpm)"}, "[10]": {"details": "spontaneously beating guinea pig heart"}},
  "data": [
    {"smiles": "CCNC(=O)[C@H]1O[C@@H](n2cnc3c(NC4CCCC4)ncnc32)[C@H](O)[C@@H]1O", "note": "[Compound A, ethyl N^6-cyclopentyladenosine-5′-uronamide]", "values": [
      {"measurement": "mean maximal increase in AV interval", "setting": "[1]; paced at 200 beats per minute, at 3.9 nM", "value": 58, "unit": "%"},
      {"measurement": "Mean Concentration of Compound A Required to Produce Maximal AV Interval", "setting": "[1]; paced at 200 bpm", "value": 3.9, "unit": "nM"},
      {"measurement": "Mean Minimal Concentration of Compound A Required to Produce Heart Block", "setting": "[1]; paced at 200 bpm", "value": 5.1, "unit": "nM"},
      {"measurement": "mean maximal increase in AV interval", "setting": "[1]; paced at 300-360 beats per minute, at 1.45 nM", "value": 20, "unit": "%"},
      {"measurement": "Mean Concentration of Compound A Required to Produce Maximal AV Interval", "setting": "[1]; paced at 300-360 bpm", "value": 1.45, "unit": "nM"},
      {"measurement": "Mean Minimal Concentration of Compound A Required to Produce Heart Block", "setting": "[1]; paced at 300-360 bpm", "value": 2.1, "unit": "nM"},
      {"measurement": "EC50", "setting": "[2]; Cavia porcellus, paced at 300-360 beats per minute, read-out: EC50 for increase in coronary perfusate flow", "value": 32, "unit": "nM"},
      {"measurement": "mean coronary perfusate flow rate reached", "setting": "[2]; increase from a mean flow rate of 8.5 mL/min, paced at 300-360 bpm", "value": 14.2, "unit": "mL/min"},
      {"measurement": "mean concentration producing heart block", "setting": "[2]; [7]", "value": 1.09, "unit": "nM"},
      {"measurement": "mean concentration that produced a maximal increase in AV conduction time", "setting": "[2]; [7]", "value": 0.76, "unit": "nM"},
      {"measurement": "potency at slowing AV conduction versus increasing coronary perfusate flow", "setting": "[2]; [7]", "value": "greater than 40 fold"},
      {"measurement": "mean maximal increase in AV interval", "setting": "[2]; paced at 300-360 beats per minute, at 0.76 nM", "value": 23, "unit": "%"},
      {"measurement": "bioavailability", "setting": "[3]", "value": 53, "unit": "%"},
      {"measurement": "effect on AV interval at 200 bpm pacing", "setting": "[4]; 2 nM, 200 bpm pacing before the episode", "value": "little effect"},
      {"measurement": "time to AV block during the 300 bpm episode", "setting": "[4]; 2 nM, 300 bpm pacing", "value": "≤ 30", "unit": "s"},
      {"measurement": "AV interval when pacing was returned to 200 bpm", "setting": "[4]; 2 nM, after the 300 bpm episode", "value": "returned to near normal values"},
      {"measurement": "mean concentration inducing AV block during the 300 bpm pacing episode", "setting": "[4]; PSVT model, 300 bpm episode", "value": 2, "unit": "nM"},
      {"measurement": "mean blood pressure", "setting": "[5]; [8]", "value": "remained unchanged"},
      {"measurement": "mean decrease in heart rate", "setting": "[5]; [8]", "value": 34, "unit": "%"},
      {"measurement": "mean decrease in heart rate", "setting": "[5]; 100 μg/kg oral", "value": 40, "unit": "%"},
      {"measurement": "change in blood pressure", "setting": "[5]; intravenous dose range 0.05 μg/kg/min to 0.1 μg/kg/min", "value": "no change"},
      {"measurement": "ED50 for induction of bradycardia", "setting": "[5]; intravenously for 120 minutes, conscious rats", "value": 0.1, "unit": "µg/kg/min"},
      {"measurement": "change in blood pressure", "setting": "[5]; oral dose range 30 μg/kg to 100 μg/kg", "value": "no change"},
      {"measurement": "EC50", "setting": "[6]; Cavia porcellus, spontaneously beating guinea pig heart, read-out: EC50 for decrease in heart rate", "value": 3.2, "unit": "nM"},
      {"measurement": "Mean Concentration of Compound A Required to Produce Maximal AV Interval", "setting": "[6]; [9]", "value": 11.7, "unit": "nM"},
      {"measurement": "Mean Minimal Concentration of Compound A Required to Produce Heart Block", "setting": "[6]; [9]", "value": 13, "unit": "nM"},
      {"measurement": "maximal decrease in heart rate", "setting": "[6]; [10]", "value": 58, "unit": "%"},
      {"measurement": "maximal increase in AV interval over basal values", "setting": "[6]; [10]", "value": 34, "unit": "%"}
    ]}
  ]
}
